Experimental data published in patent publication US11046679B2, “Indoleamine 2,3-dioxygenase inhibitor and application” (Nanjing TransThera Biosciences Co. Ltd., priority 2017, dated 2021).
Read-outs that look alike come from different tables or passages of the source.

Columns and labels:
Hela cell = Hela cell evaluation method (cytological test, rhIFN-γ stimulated); format: cell-based; conditions: Hela cells with 50 ng/mL rhIFN-γ, incubated 48 hours, OD at 480 nm
Procedure: Hela Cell Evaluation Method
(§1) Test Sample: Compounds Prepared in the Corresponding Examples of the Present Invention
Helacell strain (Purchased from ATCC, Cat. No. CCL-2, 4965442)
Recombinant Human IFN-γ (rhIFN-γ, Purchased from Peprotech, Cat. No. 300-02)
Cell plating: Hela cell suspension was prepared from fresh MEM cell culture medium, added to a 96-well cell culture plate at 5000 cells/well, and cultured at 5% carbon dioxide at 37° C. overnight.
Preparation of compound: The compound was formulated into 2 mM in DMSO, and the compound was diluted 5-fold in DMSO to obtain a compound dilution mother solution (200×) of 6 to 9 concentration gradients, and a 10× dilution solution was prepared in proportion with cell culture medium or liquid.
Dosing incubation: After the cells were plated overnight, 10 μL of the corresponding compound dilution mother solution (10×) and 10 μL of 500 ng/mL rhIFN-γ were added to each well, and the final volume of each well was 100 μL. The negative control wells contained 100 μL of 0.5% DMSO cell culture medium and Hela cells. 50 ng/mL of rhIFN-γ were filled into negative control wells, which are used as positive control. Background control wells contained 100 μL of cell culture medium. Incubation was performed for 48 hours in a 37° C. incubator and cell morphology was observed under an inverted microscope.
Detection: 80 μL of the supernatant was added to a Corning 3894 plate, and 10 μL of 6.1 N trichloroacetic acid was added to each well. The plate was shaken for 2 minutes, placed in a 50° C. incubator to react for 30 minutes, centrifuged at 2500 rpm for 10 minutes. 70 μL of the supernatant was transferred to a Corning 3635 UV plate, added with 70 μL of the reaction solution and the mixture was shaken for 2 minutes to make the reaction mixture uniform. The OD value at 480 nm was measured using EnSpire (PE).

IDO1 = molecular target: T1, IDO1 (Homo sapiens, UniProt P14902); test: IDO1 enzymology evaluation method; format: biochemical; conditions: IDO-1 enzyme, dynamic OD at 321 nm, IC50 fitted with GraphPad Prism
T1 construct: purchased CP lot number: 20160706
T1 sequence (P14902 whole entry, species assumed): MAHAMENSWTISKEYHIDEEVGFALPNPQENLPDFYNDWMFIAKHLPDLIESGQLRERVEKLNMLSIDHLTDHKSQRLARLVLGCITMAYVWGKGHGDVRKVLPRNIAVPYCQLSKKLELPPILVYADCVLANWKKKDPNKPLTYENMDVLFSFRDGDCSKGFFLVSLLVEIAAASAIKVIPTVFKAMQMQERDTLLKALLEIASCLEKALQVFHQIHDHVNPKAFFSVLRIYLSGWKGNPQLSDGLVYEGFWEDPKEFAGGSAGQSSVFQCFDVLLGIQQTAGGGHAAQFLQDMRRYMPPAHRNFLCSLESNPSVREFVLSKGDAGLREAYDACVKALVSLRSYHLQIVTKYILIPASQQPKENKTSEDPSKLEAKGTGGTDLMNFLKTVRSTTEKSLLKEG
Procedure: IDO1 Enzymology Evaluation Method
as §1
Preparation of compound: The compound was formulated into 1 mM compound mother liquor in DMSO, and the compound was diluted 3-fold in DMSO to obtain a compound concentration dilution mother solution (100×) of 9 concentration gradients.
Dosing inhibition: 2 μL of 100× compound dilution mother solution was added to a 96-well plate, added with 100 μL of enzyme solution (IDO-1), and incubated for 10 min at room temperature. 100% DMSO was used as a negative control and NLG-919 was used as a positive control. Incubation was performed with 100 μL of substrate mixture (L-tryptophan, ascorbate, methylene blue, and catalase).
Detection: Dynamic OD data at 321 nm was detected using Spectramax.
Calculation: The inhibition rate was calculated according to the following formula.
The curve slope was fitted using the Spectramax program, and IC50 was fitted using GraphPad Prism 5.0.

[1] = Rat PK evaluation of the compounds; format: in vivo; conditions: SD rats; for Cl_obs iv / Vz_obs iv / tz1/2 iv / tZ1/2 PO / bioavailability / AUC(0-inf): n = 3; for tZ1/2 PO: PO (intragastric) 5 mg/kg; for bioavailability / AUC(0-inf) / Tmax: Sprague-Dawley, rat, plasma; for Tmax: n = 3, median
Procedure: Example 3: Rat PK Evaluation of the Compounds
(§2) Animal administration and sample collection: intragastric administration: Compounds 2 and 13 were dissolved in 10% DMA+10% (30% Solutol)+80% physiological saline to prepare a solution. Compound 15 was dissolved in 10% DMA+10% PEG400+80% physiological saline to prepare a solution. The SD rats were intragastrically administered at a dose of 5.0 mg/kg. The time of blood collection was: 15 min, 30 min, 1 h, 2 h, 4 h, 6 h, 8 h and 24 h.
as §2, with “Intravenous” for “Animal administration and sample collection: intragastric”, “intravenous” for “intragastrically”, “1” for “5.0”, “was: 5 min,” for “was:”
The animals were fixed, the tail was heated in a water bath 10 min before each time point, and about 100 μL of blood was collected through the tail vein, and the blood was then placed in an anti-coagulation tube containing EDTA-K2. Blood samples were centrifuged at 8000 rpm for 6 min at 4° C. to obtain plasma samples, which must be prepared within 30 min of blood collection. The plasma samples were stored at −80° C. in a freezer before test.
Take the sample to be tested from the refrigerator (−80° C.), melted at room temperature and vortexed for 5 min. 20 μL of plasma sample was accurately pipetted into a 1.5 mL centrifuge tube; added with 200 μL of internal standard working solution at a concentration of 50 ng/mL and mixed well. The mixture was vortexed for 5 min (12000 rpm) and centrifuge for 5 min (12000 rpm). 50 μL of supernatant was accurately pipetted into 96-well plates pre-filled with 150 μL/well of water; vortexed for 5 min to mix well. The inject volume was 20 μL and LC-MS/MS was performed.
The concentration of the test sample was output by using Analyst 1.6.3 from AB. The mean, standard deviation, coefficient of variation and other parameters were calculated by Microsoft Excel (direct output from Analyst 1.6.3 is not calculated). PK parameters are calculated by using Pharsight Phoenix 6.1 software NCA (Tmax is the median).

[2] = IV 1 mg/kg, read-out: AUCinf iv
[3] = PO 5 mg/kg, read-out: AUCinf PO

Compound O=S1(=O)CCC(Nc2nonc2C(=NO)Nc2ccc(F)c(Br)c2)C1 (single isomer, unassigned) [Compound 15-P1] has an IC50 (Hela cell) of 19.4 nM and an IC50 (IDO1) of 200 nM.
Compound O=S1(=O)CCC(Nc2nonc2C(=NO)Nc2ccc(F)c(Br)c2)C1 (single isomer, unassigned) [Compound 15-P2] has an IC50 (Hela cell) of 119 nM and an IC50 (IDO1) of 240 nM.
For ON=C(Nc1ccc(F)c(Br)c1)c1nonc1NC1CCOCC1 [Compound 1, N-(3-bromo-4-fluorophenyl)-N′-hydroxy-4-((tetrahydro-2H-pyran-4-yl)amino)-1,2,5-oxadiazol-3-formamidine], the IC50 (Hela cell; Homo sapiens, HeLa, 48 h) was 109 nM.
In the case of O=S1(=O)CCC(Nc2nonc2C(=NO)Nc2ccc(F)c(Br)c2)CC1 [Compound 2, N-(3-bromo-4-fluorophenyl)-4-((1,1-dioxotetrahydro-2H-thiopyran-4-yl)amino)-N′-hydroxy-1,2,5-oxadiazol-3-formamidine], the IC50 (Hela cell; Homo sapiens, HeLa, 48 h) is reported as 39.7 nM, the Cl_obs iv ([1]; IV 1 mg/kg) is reported as 32.8 mL/min/kg and the Vz_obs iv ([1]; IV 1 mg/kg) is reported as 5.02 L/kg. The tz1/2 iv ([1]; IV 1 mg/kg) was 1.82 h, the “tZ1/2 PO” value [1] was 3.81 h and the bioavailability ([1]; IV 1 mg/kg, PO 5 mg/kg) was 62.2%. It also gave an AUC(0-inf) [1, 2] of 521 ng·h/mL, a Tmax ([1]; PO 5 mg/kg) of 15 min and an AUC(0-inf) [1, 3] of 1620 ng·h/mL.
In the case of CS(=O)(=O)N1CCC(Nc2nonc2C(=NO)Nc2ccc(F)c(Br)c2)CC1 [Compound 3, N-(3-bromo-4-fluorophenyl)-N′-hydroxy-4-((1-(methylsulfonyl)piperidin-4-yl)amino)-1,2,5-oxadiazol-3-formamidine], the IC50 (Hela cell; Homo sapiens, HeLa, 48 h) is reported as 71 nM.
In the case of NS(=O)(=O)N1CCC(Nc2nonc2C(=NO)Nc2ccc(F)c(Br)c2)CC1 [Compound 4], the IC50 (Hela cell; Homo sapiens, HeLa, 48 h) is reported as 78.8 nM.
With ON=C(Nc1ccc(F)c(Br)c1)c1nonc1NC1CC2(COC2)C1 [Compound 12, 4-((2-oxaspiro[3.3]heptan-6-yl)amino)-N-(3-bromo-4-fluorophenyl)-N′-hydroxy-1,2,5-oxadiazol-3-carboxamidine] the IC50 (Hela cell; Homo sapiens, HeLa, 48 h) was 105 nM.
O=S1(=O)CC2(CC(Nc3nonc3C(=NO)Nc3ccc(F)c(Br)c3)C2)C1 [Compound 13, N-(3-bromo-4-fluorophenyl)-4-((2,2-dioxo-2-thiaspiro[3.3]heptan-6-yl)amino)-N′-hydroxy-1,2,5-oxadiazol-3-formamidine] showed an IC50 (Hela cell; Homo sapiens, HeLa, 48 h) of 68.6 nM, an IC50 (IDO1) of 220 nM and a Cl_obs iv ([1]; IV 1 mg/kg) of 53.3 mL/min/kg. The Vz_obs iv ([1]; IV 1 mg/kg) was 9.00 L/kg, the tz1/2 iv ([1]; IV 1 mg/kg) was 2.00 h and the “tZ1/2 PO” value [1] was 1.67 h. It also gave a bioavailability ([1]; IV 1 mg/kg, PO 5 mg/kg) of 36.9%, an AUC(0-inf) [1, 2] of 336 ng·h/mL and a Tmax ([1]; PO 5 mg/kg) of 15 min. The AUC(0-inf) [1, 3] was 620 ng·h/mL.
With O=S1(=O)CCC(Nc2nonc2C(=NO)Nc2ccc(F)c(Br)c2)C1 (stereo not shown) [Compound 15, N-(3-bromo-4-fluorophenyl)-4-((1,1-dioxo-tetrahydrothiophen-3-yl)amino)-N′-hydroxy-1,2,5-oxadiazol-3-formamidine] the IC50 (Hela cell; Homo sapiens, HeLa, 48 h) was 51.6 nM, the IC50 (IDO1) was 220 nM and the Cl_obs iv ([1]; IV 1 mg/kg) was 45.5 mL/min/kg. The Vz_obs iv ([1]; IV 1 mg/kg) was 4.03 L/kg, the tz1/2 iv ([1]; IV 1 mg/kg) was 1.03 h and the “tZ1/2 PO” value [1] was 3.40 h. For the same compound, the bioavailability ([1]; IV 1 mg/kg, PO 5 mg/kg) was 28.1%, the AUC(0-inf) [1, 2] was 367 ng·h/mL and the Tmax ([1]; PO 5 mg/kg) was 60 min. The AUC(0-inf) [1, 3] was 516 ng·h/mL.
CS(=O)(=O)N1CC2(CC(Nc3nonc3C(=NO)Nc3ccc(F)c(Br)c3)C2)C1 [Compound 16, N-(3-bromo-4-fluorophenyl)-N′-hydroxy-4-((2-(methylsulfonyl)-2-azaspiro[3.3]heptan-6-yl)amino)-1,2,5-oxadiazol-3-formamidine] gave an IC50 (Hela cell; Homo sapiens, HeLa, 48 h) of 78.3 nM and an IC50 (IDO1) of 170 nM.
With O=S1(=O)CC(Nc2nonc2C(=NO)Nc2ccc(F)c(Br)c2)C1 [Compound 26, N-(3-bromo-4-fluorophenyl)-4-((1,1-dioxothietan-3-yl)amino)-N′-hydroxy-1,2,5-oxadiazol-3-formamidine] the IC50 (Hela cell; Homo sapiens, HeLa, 48 h) was 76 nM.
